Values quoted from earlier work as cited in US20210251946A1, “CANNABINOID-[…], FORMULATIONS, AND USES THEREOF FOR TREATING AMYOTROPHIC LATERAL SCLEROSIS” (GREEN RUSH SCIENCE, LLC, priority 2020, published 2021).

Key:
ALS hSOD(G93A) mice [1] = settings: daily intraperitoneal administration, initiated after disease onset
ALS hSOD(G93A) mice [2] = settings: intraperitoneally, beginning after onset of motor impairment and tremor (at 90 days old)

SMILES | increase of survival (ALS hSOD(G93A) mice [1]) [%] | motor impairment (ALS hSOD(G93A) mice [1]) | disease progression (ALS hSOD(G93A) mice [2])
CN1CCCCC1Cn1cc(C(=O)c2cc([N+](=O)[O-])ccc2I)c2ccccc21 (stereo not drawn) [AM-1241] | 56 | delayed motor impairment | –
Cc1c(C(=O)c2cccc3ccccc23)c2cccc3c2n1[C@H](CN1CCOCC1)CO3 [WIN 55,212-2] | – | – | significant delay in disease progression
